Measurements reported in PMC6400216 (Angewandte Chemie (International ed. in English), 2017).
Bridge positions count the residues as written; N and C are the ends. Square brackets hold non-standard residues; d marks the D form. Peptide text beside a SMILES is read from it. NMeF = CN[C@@H](Cc1ccccc1)C(=O)O; NMeNle = CCCC[C@H](NC)C(=O)O; NMeA = CN[C@@H](C)C(=O)O; Sar = CNCC(=O)O

Assays:
PD-L1 [1] = test: differential scanning fluorimetry; assay type: binding; conditions: DSF; for melting temperature of PD-L1 (Tm): PD-L1 alone Tm 37.6°C; for stabilization of PD-L1 against thermal induced unfolding: relative to PD-L1 alone (Tm 37.6°C)
PD-L1 [2] = test: X-ray crystallography of PD-L1/peptide complexes; assay type: binding; conditions: crystal structures of PD-L1/peptide-71 (2.5 Å) and PD-L1/peptide-57 (below 1 Å)

SMILES	melting temperature of PD-L1 (Tm) (PD-L1 [1])	stabilization of PD-L1 against thermal induced unfolding (PD-L1 [1])	binding site on PD-L1 (PD-L1 [2])
CCCC[C@H]1C(=O)N(C)[C@@H](CCCC)C(=O)N[C@@H](CCCNC(=N)N)C(=O)N[C@H](C(=O)NCC(N)=O)CSCC(=O)N[C@@H](Cc2ccccc2)C(=O)N(C)[C@@H](C)C(=O)N[C@@H](CC(N)=O)C(=O)N2CCC[C@H]2C(=O)N[C@@H](Cc2c[nH]cn2)C(=O)N[C@@H](CC(C)C)C(=O)N(C)CC(=O)N[C@@H](Cc2c[nH]c3ccccc23)C(=O)N[C@@H](CO)C(=O)N[C@@H](Cc2c[nH]c3ccccc23)C(=O)N1C [peptide-57] ({CH2CO}-F[NMeA]NPHL[Sar]WSW[NMeNle][NMeNle]RCG-NH2; thioether N-14; N-terminus and C-terminus assumed)	51.6 °C	14 °C	bind to PD-L1 partially at the site of the PD-1 interaction
CCCC[C@H]1C(=O)N(C)CC(=O)N[C@@H](CC(=O)O)C(=O)N[C@@H](C(C)C)C(=O)N(C)[C@@H](Cc2ccccc2)C(=O)N[C@@H](Cc2ccc(O)cc2)C(=O)N(C)CC(=O)N[C@@H](Cc2c[nH]c3ccccc23)C(=O)N[C@@H](Cc2ccc(O)cc2)C(=O)N[C@@H](CC(C)C)C(=O)N[C@H](C(=O)NCC(N)=O)CSCC(=O)N[C@@H](Cc2ccccc2)C(=O)N(C)[C@@H](Cc2ccccc2)C(=O)N1C [peptide-71] ({CH2CO}-F[NMeF][NMeNle][Sar]DV[NMeF]Y[Sar]WYLCG-NH2; thioether N-13; N-terminus and C-terminus assumed)	56.6 °C	19 °C	bind to PD-L1 partially at the site of the PD-1 interaction
